Read-outs that look alike come from different tables or passages of the source.
Columns and labels:
[1] = cited from earlier work
[2] = Sensory evaluation of zero-calorie carbonated beverage samples by 20 panelists; conditions: 0.050% stevia composition
Experimental: The sensory properties were evaluated by 20 panelists.

[3] = carbonated beverages; Chang and Cook 1983; cited from earlier work
[4] = sensory evaluations, Crammer and Ikan 1986

C=C1C[C@@]23CC[C@H]4[C@@](C)(CCC[C@@]4(C)C(=O)O[C@@H]4O[C@H](CO)[C@@H](O)[C@H](O)[C@H]4O)[C@@H]2CC[C@]1(O[C@@H]1O[C@H](CO)[C@@H](O)[C@H](O)[C@H]1O[C@@H]1O[C@@H](C)[C@H](O)[C@@H](O)[C@H]1O)C3 [Dulcoside A]
times sweeter than sucrose ([1]; Tanaka 1987, Phillips 1989): 30 times

C=C1C[C@@]23CC[C@H]4[C@@](C)(CCC[C@@]4(C)C(=O)O[C@@H]4O[C@H](CO)[C@@H](O)[C@H](O)[C@H]4O)[C@@H]2CC[C@]1(O[C@@H]1O[C@H](CO)[C@@H](O)[C@H](O[C@@H]2O[C@H](CO)[C@@H](O)[C@H](O)[C@H]2O)[C@H]1O[C@@H]1O[C@H](CO)[C@@H](O)[C@H](O)[C@H]1O)C3 [Reb A, rebaudioside A]
Number of panelists detected the attribute: Aftertaste [2]: 12
Number of panelists detected the attribute: Astringent taste [2]: 9
Number of panelists detected the attribute: Bitter taste [2]: 10
sensory attributes among major steviol glycosides ([1]; Tanaka 1987, Phillips 1989): the least astringent, the least bitter, and the least persistent aftertaste
times sweeter than sucrose [1, 4]: 350-450 times
heat and pH stability [3]: confirmed their heat and pH stability

C=C1C[C@@]23CC[C@H]4[C@@](C)(CCC[C@@]4(C)C(=O)O[C@@H]4O[C@H](CO)[C@@H](O)[C@H](O)[C@H]4O)[C@@H]2CC[C@]1(O[C@@H]1O[C@H](CO)[C@@H](O)[C@H](O)[C@H]1O[C@@H]1O[C@H](CO)[C@@H](O)[C@H](O)[C@H]1O)C3 [stevioside]
times sweeter than sucrose ([1]; Tanaka 1987, Phillips 1989): 110-270 times
heat and pH stability [3]: confirmed their heat and pH stability

Rebaudioside B [reb B]
times sweeter than sucrose [1, 4]: 300-350 times

rebaudioside C
times sweeter than sucrose ([1]; Tanaka 1987, Phillips 1989): 40-60 times
